# From PubChem BioAssay AID248 (DTP/NCI, 2004)
# “And” between values parts separate entries of the source, which are not always exact repeats. Identical values can stand only once. Inconclusive results and toxic doses are left out.
# Tested on: L1210 leukemia ip in BDF1 mice, survival T/C
# Assay: NCI In Vivo Anticancer Drug Screen. Data for tumor model L1210 Leukemia (intraperitoneal) in B6D2F1 (BDF1) mice
# Conditions: endpoint: mean survival time, higher = longer survival
# How it was run: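 Transplantable tumor model; survival measured in treated vs vehicle control mice. Value = treated/control.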
# [1] = dose: 200.0 mg/kg/injection, schedule: Q01DX001 (ip), vehicle: carboxymethylcellulose (CMC)
# [2] = dose: 400.0 mg/kg/injection, schedule: Q01DX001 (ip), vehicle: carboxymethylcellulose (CMC)
# [3] = dose: 100.0 mg/kg/injection, schedule: Q01DX009 (ip), vehicle: saline with Tween-80
# [4] = dose: 100.0 mg/kg/injection, schedule: Q01DX001 (ip), vehicle: saline
# [5] = dose: 200.0 mg/kg/injection, schedule: Q01DX001 (ip), vehicle: saline
# [6] = dose: 400.0 mg/kg/injection, schedule: Q01DX001 (ip), vehicle: saline
structure (smiles),measurement,setting,value
CCOC(=O)c1c[nH]c2ccc(N(CCCl)CCCl)cc12,T/C,"dose: 5.0 mg/kg/injection, schedule: Q01DX001 (ip), vehicle: carboxymethylcellulose (CMC)",98 % of control
same,T/C,"dose: 10.0 mg/kg/injection, schedule: Q01DX001 (ip), vehicle: carboxymethylcellulose (CMC)",104 % of control
same,T/C,"dose: 20.0 mg/kg/injection, schedule: Q01DX001 (oral), vehicle: carboxymethylcellulose (CMC)",98 % of control
same,T/C,"dose: 40.0 mg/kg/injection, schedule: Q01DX001 (oral), vehicle: carboxymethylcellulose (CMC)",103 % of control
same,T/C,"dose: 80.0 mg/kg/injection, schedule: Q01DX001 (oral), vehicle: carboxymethylcellulose (CMC)",103 % of control
same,T/C,"dose: 160.0 mg/kg/injection, schedule: Q01DX001 (oral), vehicle: carboxymethylcellulose (CMC)",107 % of control
same,T/C,"dose: 320.0 mg/kg/injection, schedule: Q01DX001 (oral), vehicle: carboxymethylcellulose (CMC)",115 % of control
COc1cc(N(CCCl)CCCl)c(OC)cc1C=Nc1cccc(F)c1,T/C,"dose: 12.5 mg/kg/injection, schedule: Q01DX001 (ip), vehicle: Klucel (hydroxypropylcellulose) (HPC)",96 % of control
same,T/C,"dose: 13.0 mg/kg/injection, schedule: Q01DX009 (ip), vehicle: carboxymethylcellulose (CMC)",116 % of control
same,T/C,"dose: 20.0 mg/kg/injection, schedule: Q01DX001 (ip), vehicle: Klucel (hydroxypropylcellulose) (HPC)",117 % of control
same,T/C,"dose: 20.0 mg/kg/injection, schedule: Q01DX009 (ip), vehicle: carboxymethylcellulose (CMC)",120 % of control
same,T/C,"dose: 25.0 mg/kg/injection, schedule: Q01DX001 (ip), vehicle: Klucel (hydroxypropylcellulose) (HPC)",101 % of control
same,T/C,"dose: 30.0 mg/kg/injection, schedule: Q01DX009 (ip), vehicle: carboxymethylcellulose (CMC)",118 % of control
same,T/C,"dose: 50.0 mg/kg/injection, schedule: Q01DX001 (ip), vehicle: Klucel (hydroxypropylcellulose) (HPC)",98 % of control
same,T/C,"dose: 75.0 mg/kg/injection, schedule: Q01DX001 (ip), vehicle: Klucel (hydroxypropylcellulose) (HPC)",101 % of control and 118 % of control
same,T/C,"dose: 177.0 mg/kg/injection, schedule: Q01DX001 (ip), vehicle: carboxymethylcellulose (CMC)",122 % of control
same,T/C,[1],102 % of control
same,T/C,[2],153 % of control
same,T/C,"dose: 600.0 mg/kg/injection, schedule: Q01DX001 (ip), vehicle: carboxymethylcellulose (CMC)",124 % of control
Cc1cccc(N2C(=O)CSC2=S)c1,T/C,"dose: 25.0 mg/kg/injection, schedule: Q01DX009 (ip), vehicle: saline with Tween-80",90 % of control
same,T/C,[3],92 % of control
CCCCC#CC(O)(C(=O)OC)c1ccccc1 (centres undefined),T/C,"dose: 100.0 mg/kg/injection, schedule: Q01DX001 (ip), vehicle: other",107 % of control
same,T/C,"dose: 200.0 mg/kg/injection, schedule: Q01DX001 (ip), vehicle: other",110 % of control
same,T/C,"dose: 400.0 mg/kg/injection, schedule: Q01DX001 (ip), vehicle: other",94 % of control
Cc1ccc(C(=O)N2C(=O)Cc3ccccc32)cc1,T/C,"dose: 50.0 mg/kg/injection, schedule: Q04DX002 (ip), vehicle: Klucel (hydroxypropylcellulose) (HPC)",90 % of control
same,T/C,"dose: 100.0 mg/kg/injection, schedule: Q04DX002 (ip), vehicle: Klucel (hydroxypropylcellulose) (HPC)",94 % of control
same,T/C,"dose: 200.0 mg/kg/injection, schedule: Q04DX002 (ip), vehicle: Klucel (hydroxypropylcellulose) (HPC)",94 % of control
CCCC(OC(C[N+](=O)[O-])C(Cl)(Cl)Cl)c1ccccc1 (centres undefined),T/C,[3],97 % of control
same,T/C,"dose: 100.0 mg/kg/injection, schedule: Q04DX003 (ip), vehicle: saline with Tween-80",98 % of control
same,T/C,"dose: 200.0 mg/kg/injection, schedule: Q01DX009 (ip), vehicle: saline with Tween-80",101 % of control
same,T/C,"dose: 200.0 mg/kg/injection, schedule: Q04DX003 (ip), vehicle: saline with Tween-80",96 % of control
same,T/C,"dose: 400.0 mg/kg/injection, schedule: Q01DX009 (ip), vehicle: saline with Tween-80",107 % of control
same,T/C,"dose: 400.0 mg/kg/injection, schedule: Q04DX003 (ip), vehicle: saline with Tween-80",96 % of control
CCOC(=O)c1c(C)c(-c2ccccc2F)nc2ccccc12,T/C,[4],103 % of control
same,T/C,[5],94 % of control
COc1ccc(CN2CCCN(Cc3ccc(OC)cc3OC)C2c2ccccn2)c(OC)c1,T/C,"dose: 50.0 mg/kg/injection, schedule: Q01DX001 (ip), vehicle: saline",101 % of control
same,T/C,[4],95 % of control
same,T/C,[5],91 % of control
same,T/C,[6],89 % of control
O=C1C[C@H]2[C@H](CO)[C@@H](OC(=O)c3ccc(-c4ccccc4)cc3)C[C@H]2O1,T/C,"dose: 12.5 mg/kg/injection, schedule: Q01DX009 (ip), vehicle: alcohol",103 % of control
same,T/C,"dose: 25.0 mg/kg/injection, schedule: Q01DX009 (ip), vehicle: alcohol",101 % of control
same,T/C,"dose: 50.0 mg/kg/injection, schedule: Q01DX009 (ip), vehicle: alcohol",98 % of control
O=C(Nc1cccc(C2=NCCCN2)c1)Nc1ccc(NC(=O)Nc2cccc(C3=NCCCN3)c2)c(Cl)c1,T/C,"dose: 0.47 mg/kg/injection, schedule: Q01DX Z (ip), vehicle: carboxymethylcellulose (CMC)",121 % of control
same,T/C,"dose: 0.93 mg/kg/injection, schedule: Q01DX Z (ip), vehicle: carboxymethylcellulose (CMC)",118 % of control
same,T/C,"dose: 3.75 mg/kg/injection, schedule: Q01DX Z (ip), vehicle: carboxymethylcellulose (CMC)",156 % of control and 204 % of control
same,T/C,"dose: 7.5 mg/kg/injection, schedule: Q01DX Z (ip), vehicle: carboxymethylcellulose (CMC)",229 % of control
same,T/C,"dose: 18.0 mg/kg/injection, schedule: Q01DX001 (ip), vehicle: carboxymethylcellulose (CMC)",152 % of control
same,T/C,"dose: 25.0 mg/kg/injection, schedule: Q01DX Z (oral), vehicle: carboxymethylcellulose (CMC)",101 % of control
same,T/C,"dose: 26.0 mg/kg/injection, schedule: Q01DX001 (ip), vehicle: carboxymethylcellulose (CMC)",150 % of control
same,T/C,"dose: 26.0 mg/kg/injection, schedule: Q01DX001 (ip), vehicle: other",154 % of control
same,T/C,"dose: 40.0 mg/kg/injection, schedule: Q01DX001 (ip), vehicle: carboxymethylcellulose (CMC)",150 % of control and 162 % of control
same,T/C,"dose: 40.0 mg/kg/injection, schedule: Q01DX001 (ip), vehicle: other",171 % of control
same,T/C,"dose: 50.0 mg/kg/injection, schedule: Q01DX Z (oral), vehicle: carboxymethylcellulose (CMC)",98 % of control
same,T/C,"dose: 60.0 mg/kg/injection, schedule: Q01DX001 (ip), vehicle: carboxymethylcellulose (CMC)",173 % of control and 200 % of control
same,T/C,"dose: 60.0 mg/kg/injection, schedule: Q01DX001 (ip), vehicle: other",185 % of control
same,T/C,"dose: 80.0 mg/kg/injection, schedule: Q01DX001 (ip), vehicle: carboxymethylcellulose (CMC)",236 % of control
same,T/C,"dose: 100.0 mg/kg/injection, schedule: Q01DX Z (oral), vehicle: carboxymethylcellulose (CMC)",104 % of control
same,T/C,"dose: 200.0 mg/kg/injection, schedule: Q01DX Z (oral), vehicle: carboxymethylcellulose (CMC)",101 % of control
O=S(=O)(Cc1ccccc1)C(=C(N1CCCCC1)N1CCCCC1)S(=O)(=O)Cc1ccccc1,T/C,[4],102 % of control
same,T/C,"dose: 100.0 mg/kg/injection, schedule: Q01DX009 (ip), vehicle: saline",94 % of control
same,T/C,[5],104 % of control
same,T/C,"dose: 200.0 mg/kg/injection, schedule: Q01DX009 (ip), vehicle: saline",93 % of control
same,T/C,[6],98 % of control
same,T/C,"dose: 400.0 mg/kg/injection, schedule: Q01DX009 (ip), vehicle: saline",96 % of control
O=C(OC1OC(COCc2ccccc2)C(OCc2ccccc2)C1OCc1ccccc1)c1ccccc1 (centres undefined),T/C,"dose: 100.0 mg/kg/injection, schedule: Q01DX001 (ip), vehicle: Klucel (hydroxypropylcellulose) (HPC)",92 % of control and 98 % of control
same,T/C,"dose: 200.0 mg/kg/injection, schedule: Q01DX001 (ip), vehicle: Klucel (hydroxypropylcellulose) (HPC)",100 % of control and 98 % of control
same,T/C,"dose: 400.0 mg/kg/injection, schedule: Q01DX001 (ip), vehicle: Klucel (hydroxypropylcellulose) (HPC)",94 % of control and 113 % of control
Clc1ncnc2[nH]cc(Br)c12,T/C,"dose: 50.0 mg/kg/injection, schedule: Q01DX001 (ip), vehicle: carboxymethylcellulose (CMC)",98 % of control
same,T/C,"dose: 100.0 mg/kg/injection, schedule: Q01DX001 (ip), vehicle: carboxymethylcellulose (CMC)",104 % of control
same,T/C,[1],110 % of control
same,T/C,[2],98 % of control
C[N+]1(C)CCC[N+](C)(C)CC1,T/C,"dose: 55.0 mg/kg/injection, schedule: Q01DX Z (ip), vehicle: saline",95 % of control
same,T/C,"dose: 83.0 mg/kg/injection, schedule: Q01DX Z (ip), vehicle: saline",98 % of control
same,T/C,"dose: 125.0 mg/kg/injection, schedule: Q01DX Z (ip), vehicle: saline",103 % of control
